Measured values from patent US6004928A, “Method of treating hyperlipidemia” (Biomeasure, Incorporated, priority 1998, dated 1999).
Positions of bridges follow the written chain, without caps; N, C: chain ends. Non-standard residues stand in square brackets, D forms with d. Residues, ends and D or L forms follow the SMILES beside them.

Key:
[1] = test system: fatty (fa/fa) Zucker rats; assay: Reduction of glycerol and triglycerides, chronic treatment in fatty Zucker rats; type: in vivo, rat
Text: The obese (fa/fa) Zucker and its derivative in the Zucker diabetic fatty (ZDF/Drt-fa) are excellent models of diabetes-induced dyspilidemia (Shafrir, E., Diabetes/Metabolism Rev. 8:179-208 (1992); Peterson, R. G., et al., ILAR News 32:16-19 (1990)). The animals develop progressive hypertriglyceridemia and hypercholesterolemia.
Eleven male fatty Zucker rats weighing about 450 grams were randomly divided into 2 groups and their initial body weights recorded. The animals were housed in pairs in a normal 12 hour light/dark cycle at 20±2° C. and fed a standard laboratory rat diet (Beekay rat and mouse diet, Bantin & Kingman, Hull, Humberside, U.K.) overnight ad libitum.
For the group assigned to receive drug treatment, the rats received BIM-23268C at 3 mg/kg, by subcutaneous injection twice a day at 10:00 a.m. and 5:00 p.m. The other group was treated with a subcutaneous injection of 0.1 ml/100 g of saline twice a day at 10:00 a.m. and 5:00 p.m. The animals were subjected to the BIM-23268 or saline treatment for a total of six days.
On the last day of treatment (day 6), food was removed at 5:00 p.m. and the rats fasted overnight. At 9:00 a.m. the next day, the animals were subjected to a glucose challenge, given as a 0.8 gram/kg of glucose orally. Periodic 400 ul of blood samples were taken from the tail vein (Peterson, R. G., ILAR News 32:16-19 (1990)) at 60 min. and 30 min. before, and at 30, 60, 90, and 120 min. after the administration of the glucose challenge (08. gram/kg orally). Aprotinin (Traysylol, Bayer UK, Hayward's Heath, W. Sussex, U.K.) and heparin (Sigma Chemical Co., Poole, Dorset, U.K.) were added to the blood samples to a final concentration of 400 KIU/ml and 100 units/ml, respectively. Plasma fractions were prepared from these samples by centrifugation at 400×G in a microfuge, for the estimation of triglycerides and glycerol. Samples were then stored at -80° C. until assayed.
Plasma glycerol and triglycerides were determined using the Sigma Enzymatic (Tinder) calorimetric assay kit (Cat #337-B, Sigma Chemical Co., Poole, Dorset, U.K.) and measuring absorbance at 540 nm in a spectrophotometer.

normal humans = conditions: cited from earlier work
alloxan diabetic dogs = conditions: cited from earlier work
acromegalics = conditions: cited from earlier work
hSSTR-4 = biological target: T1, hSSTR-4 (Homo sapiens, UniProt P31391); assay: Somatostatin receptor binding assay, [125I-Tyr11]somatostatin-14, transfected CHO-K1 membranes; conditions: 0.05 nM [125I-Tyr11]somatostatin-14, 30 min at 30° C.
T1 construct: expressed in transfected cells; crude membranes
T1 sequence (P31391 whole entry): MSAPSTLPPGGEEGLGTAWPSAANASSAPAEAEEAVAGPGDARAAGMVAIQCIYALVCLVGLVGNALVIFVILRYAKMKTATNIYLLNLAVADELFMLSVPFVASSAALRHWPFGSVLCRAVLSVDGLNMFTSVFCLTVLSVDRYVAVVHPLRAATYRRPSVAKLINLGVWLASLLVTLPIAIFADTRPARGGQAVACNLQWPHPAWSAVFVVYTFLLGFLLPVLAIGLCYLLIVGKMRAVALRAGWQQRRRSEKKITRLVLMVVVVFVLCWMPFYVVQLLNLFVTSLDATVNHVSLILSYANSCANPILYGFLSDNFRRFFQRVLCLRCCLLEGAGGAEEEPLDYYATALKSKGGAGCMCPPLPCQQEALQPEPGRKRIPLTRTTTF
Protocol: (§1) CHO-K1 (ovary, Chinese hamster) cells were obtained from ATCC (ATCC No. CCL 61). The cells were grown and maintained in Ham's F12 media (Gibco BRL, Grand Island, N.Y.) supplemented with 10% fetal bovine serum under standard tissue culture conditions. For transfection, the cells were seeded at a density 1×10^6 /60-cm plate (Baxter Scientific Products, McGraw Park, Ill.). […] CHO-K1 clonal cell lines that have stably inherited the transfected DNA were selected for growth in Ham's F12 media containing 10% fetal bovine serum and 0.5 mg/ml of G418 (Sigma). The cells were ring-cloned and expanded in the same media for analysis.
(§2) Transfected cell lines expressing the human SSTR receptors were clonally expanded in culture and used in the following SSTR binding protocol.
(§3) Crude membranes were prepared by homogenization of the transfected cells in 20 ml of ice-cold 50 mM Tris-HCl with a POLYTRON homogenizer (setting 6, 15 sec). Buffer was added to obtain a final volume of 40 ml, and the homogenate was centrifuged in a Sorval SS-34 rotor at 39,000 g for 10 min at 0-4° C. The resulting supernatant was decanted and discarded. The pellet was rehomogenized in ice-cold buffer, diluted, and centrifuged as before. The final pellet was resuspended in the 10 mM Tris HCl and held on ice for the receptor binding assay.
The final assay volume was 0.3 ml. […]

hSSTR-2 = biological target: T2, hSSTR-2 (Homo sapiens, UniProt P30874); assay: as above; conditions: 0.05 nM [125I-Tyr11]somatostatin-14, 30 min at 30° C.
T2 construct: expressed in transfected cells; crude membranes
T2 sequence (P30874 whole entry): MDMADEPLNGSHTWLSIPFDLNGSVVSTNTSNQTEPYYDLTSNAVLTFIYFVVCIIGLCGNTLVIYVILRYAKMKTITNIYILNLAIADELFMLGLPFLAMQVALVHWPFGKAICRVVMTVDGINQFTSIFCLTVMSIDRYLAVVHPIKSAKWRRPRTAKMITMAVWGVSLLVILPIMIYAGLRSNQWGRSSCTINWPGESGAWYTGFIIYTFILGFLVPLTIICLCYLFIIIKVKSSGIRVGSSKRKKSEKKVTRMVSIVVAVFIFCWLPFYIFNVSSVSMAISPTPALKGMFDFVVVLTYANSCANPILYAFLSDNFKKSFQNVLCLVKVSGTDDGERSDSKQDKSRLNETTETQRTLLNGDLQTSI
Protocol: as §1, §2, §3
The final assay volume was 0.3 ml. […]

hSSTR-3 = biological target: T3, hSSTR-3 (Homo sapiens, UniProt P32745); assay: as above; conditions: 0.05 nM [125I-Tyr11]somatostatin-14, 30 min at 30° C.
T3 construct: expressed in transfected cells; crude membranes
T3 sequence (P32745 whole entry): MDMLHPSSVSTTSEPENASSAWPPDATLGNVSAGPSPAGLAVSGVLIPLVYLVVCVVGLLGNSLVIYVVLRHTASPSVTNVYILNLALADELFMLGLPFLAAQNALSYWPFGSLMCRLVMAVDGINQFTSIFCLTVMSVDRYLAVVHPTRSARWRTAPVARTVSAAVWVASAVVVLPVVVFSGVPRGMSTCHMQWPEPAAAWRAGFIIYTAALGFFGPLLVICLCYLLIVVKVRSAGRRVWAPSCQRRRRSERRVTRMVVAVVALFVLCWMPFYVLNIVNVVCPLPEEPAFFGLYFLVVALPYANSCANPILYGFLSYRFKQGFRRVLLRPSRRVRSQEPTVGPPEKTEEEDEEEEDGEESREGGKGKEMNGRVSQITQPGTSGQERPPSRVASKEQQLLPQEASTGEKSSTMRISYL
Protocol: as §1, §2, §3
The final assay volume was 0.3 ml. […]

hSSTR-5 = biological target: T4, hSSTR-5 (Homo sapiens, UniProt P35346); assay: as above; conditions: 0.05 nM [125I-Tyr11]somatostatin-14, 30 min at 30° C.
T4 construct: expressed in transfected cells; crude membranes
T4 sequence (P35346 whole entry): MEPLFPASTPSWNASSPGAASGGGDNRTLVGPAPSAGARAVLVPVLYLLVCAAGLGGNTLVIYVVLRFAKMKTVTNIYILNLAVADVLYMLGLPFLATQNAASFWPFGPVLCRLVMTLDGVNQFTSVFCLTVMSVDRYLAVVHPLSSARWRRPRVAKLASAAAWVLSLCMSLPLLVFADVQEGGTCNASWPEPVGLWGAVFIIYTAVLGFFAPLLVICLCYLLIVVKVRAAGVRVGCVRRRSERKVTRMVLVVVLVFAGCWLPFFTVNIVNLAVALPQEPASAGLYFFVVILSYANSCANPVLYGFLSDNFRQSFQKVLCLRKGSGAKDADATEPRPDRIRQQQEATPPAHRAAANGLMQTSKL
Protocol: as §1, §2, §3
The final assay volume was 0.3 ml. […]

[2] = 3 mg/kg s.c. twice a day, 6 days, after oral glucose challenge 0.8 gram/kg, vs saline group
[3] = 3 mg/kg s.c. twice a day, 6 days, samples 30 and 60 min before oral glucose challenge

With `C[C@@H](O)[C@@H]1NC(=O)[C@H](CCCCN)NC(=O)[C@@H](Cc2c[nH]c3ccccc23)NC(=O)[C@H](Cc2ccccc2)NC(=O)[C@H](Cc2ccccc2)NC(=O)[C@@H](N)CSSC[C@@H](C(N)=O)NC(=O)[C@H](Cc2ccccc2)NC1=O` [BIM-23268, H-Cys-Phe-Phe-D-Trp-Lys-Thr-Phe-Cys-NH2] (H-CFF[dW]KTFC-NH2; disulfide 1-8 (inferred)) the “plasma glycerol through the 2-hour test period” value [1, 2] was “significantly lower”, the “plasma triglycerides through the 2-hour test period” value [1, 2] was “significantly lower” and the plasma glycerol [1, 3] was “significantly lowered”. The plasma triglycerides [1, 3] was “significantly lowered” and the hypertriglyceridemia ([1]; 6-day treatment period at the prescribed dose) was “effective in reducing hypertriglyceridemia”.

In the case of `C[C@H](N)C(=O)NCC(=O)N[C@H]1CSSC[C@@H](C(=O)O)NC(=O)[C@H](CO)NC(=O)[C@H]([C@@H](C)O)NC(=O)[C@H](Cc2ccccc2)NC(=O)[C@H]([C@@H](C)O)NC(=O)[C@H](CCCCN)NC(=O)[C@H](Cc2c[nH]c3ccccc23)NC(=O)[C@H](Cc2ccccc2)NC(=O)[C@H](Cc2ccccc2)NC(=O)[C@H](CC(N)=O)NC(=O)[C@H](CCCCN)NC1=O` [somatostatin], the plasma triglyceride concentrations (normal humans) is given as “reduce plasma triglyceride concentrations”, the plasma triglyceride concentrations (alloxan diabetic dogs) is given as “reduce plasma triglyceride concentrations” and the plasma triglyceride concentrations (acromegalics) is given as “reduce plasma triglyceride concentrations”.

Work on `C[C@@H](O)[C@@H]1NC(=O)[C@H](CCCCN)NC(=O)[C@@H](Cc2c[nH]c3ccccc23)NC(=O)[C@H](Cc2ccc(O)c(I)c2)NC(=O)[C@H](Cc2ccccc2)NC(=O)[C@@H](N)CSSC[C@@H](C(N)=O)NC(=O)[C@H](Cc2ccccc2)NC1=O` [BIM-23313, H-Cys-Phe-Tyr(I)-D-Trp-Lys-Thr-Phe-Cys-NH2] yielded a Ki (hSSTR-4) of 55.3 nM, a Ki (hSSTR-2) of 4.78 nM and a Ki (hSSTR-3) of 25.5 nM. It also gave a Ki (hSSTR-5) of 0.3 nM.
